Laboratory results taken from patent US5055472A, “Pyrazolopyrimidine type mevalonolactones” (Nissan Chemical Industries, Ltd., priority 1988, dated 1991).

What was measured:
[1] = tested on: cholesterol biosynthesis in Hep G2 cells; assay: Test B-1: Inhibition of cholesterol biosynthesis in culture cells (Hep G2); assay type: cell-based; conditions: for inhibition at 1 µM: 1.0 × 10^-6 mol/l, Hep G2 cells, read-out: Inhibitory activities at a concentration of 1.0 × 10^-6 mol/l by Test B-1 (Relative activities); for Relative activities by Test B-1: relative to CS-514 = 1 (Test B-1)
Description: Hep G2 cells at over 5th passage were seeded to 12 well plates and incubated with Dulbecco's modified Eagle (DME) medium containing 10% of fetal bovine serum (FBS) at 37° C., 5% CO2 until cells were confluent for about 7 days. Cells were exposed to the DME medium contaiing 5% of lipoprotein deficient serum (LpDS) prepared by ultracentrifugation method for over 24 hours. Medium was changed to 0.5 ml of fresh 5% LpDS containing DME before assay and 10 μl of test compound solution dissolved in water or DMSO were added. 0.2 μCi of [2-^14 C]sodium acetate (20 μl ) was added at 0 hr(B-1) or 4 hrs(B-2) after addition of compounds. After 4 hrs further incubation with [2-^14 C]sodium acetate, medium was removed and cells were washed with phosphate buffered saline (PBS) chilled at 4° C. Cells were scraped with rubber policeman and collected to tubes with PBS and digested with 0.2 ml of 0.5 N KOH at 37° C. Aliquot of digestion was used for protein analysis and remaining was saponified with 1 ml of 15% EtOH-KOH at 75° C. for 1 hour. Nonsaponifiable lipids were extracted with petroleum ether and ^14 C radioactivity was counted. Counts were revised by cell protein and indicated with DPM/mg protein. Inhibitory activity of compounds was indicated with IC50. With respect to the compounds of the present invention, the inhibitory activities against the cholesterol biosynthesis in which HMG-CoA reductase serves as a rate limiting enzyme, were measured by the above Test A and B.

Test D: Acute toxicity = conditions: mouse, in vivo, 1000 mg/kg; 1,000 mg/kg oral, 0.5% CMC suspension, ICR male mice, after seven days
Description: A 0.5% CMC suspension of a test compound was orally administered to ICR male mice (group of three mice). The acute toxicity was determined based on the mortality after seven days. With compound I 5-4 and I-5-6 of the present ivnention, the mortality was 0% even when they were orally administered in an amount of 1,000 mg/kg, respectively.

cholesterol biosynthesis [2] = assay: Test A: Inhibition of cholesterol biosynthesis from acetate in vitro; assay type: biochemical, male Wistar rat; conditions: relative to CS-514 = 1 (Test A)
Description: Enzyme solution was prepared from liver of male Wistar rat billialy connulated and discharged bile for over 24 hours. Liver was cut out at mid-dark and microsome and supernatant fraction which was precipitable with 40-80% of solution of ammonium sulfate (sup fraction) were prepared from liver homogenate according to the modified method of Knauss et. al.; Kuroda, M., et. al., Biochim. Biophys. Acta, 489, 119 (1977). For assay of cholesterol biosynthesis, microsome (0.1 mg protein) and sup fraction (1.0 mg protein) were incubated for 2 hours at 37° C. in 200 μl of the reaction mixture containing ATP; 1 mM, Glutathione; 6 mM, Glucose-1-phosphate; 10 mM, NAD; 0.25 mM, NADP; 0.25 mM, CoA; 0.04 mM and 0.2 mM [2-^14 C]sodium acetate (0.2 μCi) with 4 μl of test compound solution dissolved in water or dimethyl sulfoxide. To stop reaction and saponify, 1 ml of 15% EtOH-KOH was added to the reactions and heated at 75° C. for 1 hour. Nonsaponifiable, lipids were extracted with petroleum ether and incorporated ^14 C radioactivity was counted. Inhibitory activity of compounds was indicated with IC50.
With respect to the compounds of the present invention, the inhibitory activities against the cholesterol biosynthesis in which HMG-CoA reductase serves as a rate limiting enzyme, were measured by the above Test A and B. The results are shown in Tables 2, 3-1 and 3-2.
The relative activities of the compounds of the present invention based on the activities of CS-514 by Test A being evaluated to be 1, are shown in Table 2.

cholesterol biosynthesis [3] = assay: Test C: Inhibition of cholesterol biosynthesis in vivo; set-up: species or system Male Sprague-Dawley rats; conditions: 0.2 mg/kg, oral administration, rats
Description: Male Sprague-Dawley rats weighing about 150 g were fed normal Purina chow diet and water ad libitum, and exposed to 12 hours light/12 hours dark lighting pattern (2:00 PM-2:00 AM dark) prior to use for in vivo inhibition test of cholesterol biosynthesis. Animals were separated groups consisting of five rats as to be average mean body weight in each groups. Test compounds at dosage of 0.02-0.2 mg/kg body weight (0.4 ml/100 g body weight), were dissolved in water or suspended in 0.5% methyl cellulose and orally administered at 2-3 hours before mid-dark (8:00 PM), while cholesterol biosynthesis reaches to maximum in rats. As control, rats were orally administered only water or vehicle. At 90 minutes after sample administration, rats were injected intraperitoneally with 10 μCi of [2-^14 C]sodium acetate at volume of 0.2 ml per one. 2 Hours later, blood samples were obtained and serum were separated immediately. Total lipids were extracted according to the method of Folch et al. and saponified with EtOH-KOH. Nonsaponifiable lipids were extracted with petroleum ether and radio activity incorporated into nonsaponifiable lipids was counted. Inhibitory activity was indicated as percent decrease of counts in testing groups (DPM/2 ml serum/2 hours) from that in control group.

Structure (SMILES): CCOC(=O)CC(O)CC(O)/C=C/c1c(C(C)C)nc2cc(-c3ccccc3)nn2c1-c1ccc(F)cc1 (stereo not shown) [Compound I-1-3]
- inhibition at 1 µM ([1]; Homo sapiens, HepG2): 66.1%
- Relative activities by Test B-1 [1]: 29.5

Structure (SMILES): CCOC(=O)CC(O)CC(O)/C=C/c1c(C(C)C)nc2cc(C)nn2c1-c1ccc(F)cc1 (stereo not shown) [Compound I-1-1, Ethyl (E)-7-[7'-(4"-fluorophenyl)-2'-methyl-5'-(1"-methylethyl)pyrazolo[1,5-a]pyrimidin-6'-yl]-3,5-dihydroxyhept-6-enoate]
- inhibition at 1 µM ([1]; Homo sapiens, HepG2): 67.3%
- Relative activities by Test B-1 [1]: 17.8

Structure (SMILES): Cc1nn2c(-c3ccc(F)cc3)c(/C=C/C(O)CC(O)CC(=O)O)c(C3CC3)nc2c1-c1ccccc1 (stereo not shown) [Compound I-5-6]
- inhibition at 1 µM ([1]; Homo sapiens, HepG2): 58%
- mortality at 168 h (Test D: Acute toxicity): 0%
- Relative activities by Test A (cholesterol biosynthesis [2]): 0.75

Structure (SMILES): Cc1nn2c(-c3ccc(F)cc3)c(/C=C/C(O)CC(O)CC(=O)O)c(C3CC3)nc2c1C (stereo not shown) [Compound I-5-5]
- inhibition at 1 µM ([1]; Homo sapiens, HepG2): 55.3%
- Relative activities by Test A (cholesterol biosynthesis [2]): 0.29

Structure (SMILES): CC(C)c1nc2cc(-c3ccco3)nn2c(-c2ccc(F)cc2)c1/C=C/C(O)CC(O)CC(=O)O (stereo not shown) [Compound I-5-7]
- Relative activities by Test A (cholesterol biosynthesis [2]): 0.20

Structure (SMILES): CC(C)c1nc2c3c(nn2c(-c2ccc(F)cc2)c1/C=C/C(O)CC(O)CC(=O)O)CCCC3 (stereo not shown) [Compound I-5-9]
- Relative activities by Test A (cholesterol biosynthesis [2]): 0.13

Structure (SMILES): CC(C)c1nc2cc(C(C)(C)C)nn2c(-c2ccc(F)cc2)c1/C=C/C(O)CC(O)CC(=O)O (stereo not shown) [Compound I-5-2]
- inhibition at 1 µM ([1]; Homo sapiens, HepG2): 44.6%
- Relative activities by Test A (cholesterol biosynthesis [2]): 0.09

Structure (SMILES): CC(C)c1nc2cc(-c3ccccc3)nn2c(-c2ccc(F)cc2)c1/C=C/C(O)CC(O)CC(=O)O (stereo not shown) [Compound I-5-3]
- inhibition at 1 µM ([1]; Homo sapiens, HepG2): 66.3%
- Relative activities by Test B-1 [1]: 26.0
- Relative activities by Test A (cholesterol biosynthesis [2]): 0.27

Structure (SMILES): Cc1cc2nc(C(C)C)c(/C=C/C(O)CC(O)CC(=O)O)c(-c3ccc(F)cc3)n2n1 (stereo not shown) [Compound I-5-1, Sodium (E)-7-[7'-(4"-fluorophenyl)-2'-methyl-5'-(1"-methylethyl)pyrazolo[1,5-a]pyrimidin-6'-yl]-3,5-dihydroxyhept-6-enoate]
- inhibition at 1 µM ([1]; Homo sapiens, HepG2): 53.9%
- percent decrease of counts relative to control group (cholesterol biosynthesis [3]): 50%
- Relative activities by Test A (cholesterol biosynthesis [2]): 0.64

Structure (SMILES): CC(C)c1cc2nc(C3CC3)c(/C=C/C(O)CC(O)CC(=O)O)c(-c3ccc(F)cc3)n2n1 (stereo not shown) [Compound I-5-8]
- Relative activities by Test A (cholesterol biosynthesis [2]): 0.09

Structure (SMILES): CCC(C)C(=O)OC1CC(O)C=C2C=CC(C)C(CCC(O)CC(O)CC(=O)O)C21 (stereo not shown) [CS-514, reference compound]
- IC50 ([1]; Homo sapiens, HepG2, Test B-1, Hep G2 cells, [2-14C]sodium acetate added at 0 hr, read-out: IC50 in Test B1): 3.66 µM
- percent decrease of counts relative to control group (cholesterol biosynthesis [3]): 34%

Structure (SMILES): Cc1cc2nc(C3CC3)c(/C=C/C(O)CC(O)CC(=O)O)c(-c3ccc(F)cc3)n2n1 (stereo not shown) [Compound I-5-4]
- inhibition at 1 µM ([1]; Homo sapiens, HepG2): 57.1%
- mortality at 168 h (Test D: Acute toxicity): 0%
- Relative activities by Test A (cholesterol biosynthesis [2]): 0.39
